The values below come from US12187702B2, “Sulfonamideurea compounds” (Inflazome Limited, priority 2018, dated 2025).

Structures can show the parent of a compound that is named as a salt.

This assay addresses NLRP3 (Homo sapiens, UniProt Q96P20). As to the kind of experiment: THP-1 cells pyroptosis assay (LPS + nigericin, resazurin read-out). Format: cell-based. Also noted: Seed THP-1 cells (25,000 cells/well) containing 1.0 μg/ml LPS; host or cells: THP-1 cells. Conditions: THP-1 cells, 1 μg/ml LPS, 5 μM nigericin; NLRP3 inhibitory activity; read-out: THP IC50. The protocol: THP-1 cells (ATCC #TIB-202) were grown in RPMI containing L-glutamine (Gibco #11835) supplemented with 1 mM sodium pyruvate (Sigma #S8636) and penicillin (100 units/ml)/streptomycin (0.1 mg/ml) (Sigma #P4333) in 10% Fetal Bovine Serum (FBS) (Sigma #F0804). The cells were routinely passaged and grown to confluency (˜10^6 cells/ml). On the day of the experiment, THP-1 cells were harvested and resuspended into RPMI medium (without FBS). The cells were then counted and viability (>90%) checked by Trypan blue (Sigma #T8154). Appropriate dilutions were made to give a concentration of 625,000 cells/ml. To this diluted cell solution was added LPS (Sigma #L4524) to give a 1 μg/ml Final Assay Concentration (FAC). 40 μl of the final preparation was aliquoted into each well of a 96-well plate. The plate thus prepared was used for compound screening.
The following method step-by-step assay was followed for compound screening. • 1. Seed THP-1 cells (25,000 cells/well) containing 1.0 μg/ml LPS in 40 μl of RPMI medium (without FBS) in 96-well, black walled, clear bottom cell culture plates coated with poly-D-lysine (VWR #734-0317) • 2. Add 5 μl compound (8 points half-log dilution, with 10 μM top dose) or vehicle (DMSO 0.1% FAC) to the appropriate wells • 3. Incubate for 3 hrs at 37° C., 5% CO2 • 4. Add 5 μl nigericin (Sigma #N7143) (FAC 5 μM) to all wells • 5. Incubate for 1 hr at 37° C., 5% CO2 • 6. At the end of the incubation period, spin plates at 300×g for 3 mins and remove supernatant • 7. Then add 50 μl of resazurin (Sigma #R7017) (FAC 100 μM resazurin in RPMI medium without FBS) and incubate plates for a further 1-2 hrs at 37° C. and 5% CO2 • 8. Plates were read in an Envision reader at Ex 560 nm and Em 590 nm • 9. IC50 data is fitted to a non-linear regression equation (log inhibitor vs response-variable slope 4-parameters)
For orientation: The colour change of resazurin is a common sign of viable cells or microbes.

Sequence of NLRP3 (Q96P20 whole entry): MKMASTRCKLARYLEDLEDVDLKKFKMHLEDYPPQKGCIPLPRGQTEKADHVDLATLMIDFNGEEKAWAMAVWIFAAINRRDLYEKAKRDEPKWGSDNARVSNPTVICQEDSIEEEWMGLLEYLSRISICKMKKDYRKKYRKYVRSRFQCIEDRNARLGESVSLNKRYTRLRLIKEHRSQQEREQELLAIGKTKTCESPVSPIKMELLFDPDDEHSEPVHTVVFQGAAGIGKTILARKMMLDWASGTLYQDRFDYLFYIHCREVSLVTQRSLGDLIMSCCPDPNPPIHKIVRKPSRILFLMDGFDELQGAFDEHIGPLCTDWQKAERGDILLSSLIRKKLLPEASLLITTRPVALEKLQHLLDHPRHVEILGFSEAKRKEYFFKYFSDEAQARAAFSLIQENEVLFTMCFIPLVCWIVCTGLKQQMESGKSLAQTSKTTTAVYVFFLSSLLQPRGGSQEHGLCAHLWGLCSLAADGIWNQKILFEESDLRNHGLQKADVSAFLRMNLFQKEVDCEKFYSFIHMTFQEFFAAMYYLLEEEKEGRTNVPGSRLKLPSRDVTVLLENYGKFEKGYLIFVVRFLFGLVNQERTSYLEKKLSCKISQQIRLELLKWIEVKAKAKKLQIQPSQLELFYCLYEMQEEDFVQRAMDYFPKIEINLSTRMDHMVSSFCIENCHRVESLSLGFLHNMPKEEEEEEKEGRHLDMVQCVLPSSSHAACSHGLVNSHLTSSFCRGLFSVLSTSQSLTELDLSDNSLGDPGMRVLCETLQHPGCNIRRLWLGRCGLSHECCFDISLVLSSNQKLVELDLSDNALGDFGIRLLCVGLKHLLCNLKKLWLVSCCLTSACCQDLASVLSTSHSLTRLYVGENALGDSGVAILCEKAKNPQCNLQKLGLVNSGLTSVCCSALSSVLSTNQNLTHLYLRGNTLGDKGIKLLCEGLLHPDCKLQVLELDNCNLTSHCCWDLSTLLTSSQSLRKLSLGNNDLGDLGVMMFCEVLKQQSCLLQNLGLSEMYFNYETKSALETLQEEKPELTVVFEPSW

Broadly, the IC50 is the concentration at which inhibition is half-maximal. `COCCN(C)S(=O)(=O)NC(=O)Nc1c2c(cc3c1CCC3)CCC2` [Example 7, 3-Methyl-((2-Methoxyethyl)sulfamoyl)-1-(1,2,3,5,6,7-hexahydro-s-indacen-4-yl)urea, potassium salt]: the IC50 is under 1 µM.

On to `O=C(Nc1c2c(cc3c1CCC3)CCC2)NS(=O)(=O)N1[C@@H]2CC[C@H]1C[C@@H](N1CCCC1)C2` [Example 70, (1R,3r,5S)—N-((1,2,3,5,6,7-Hexahydro-s-indacen-4-yl)carbamoyl)-3-(pyrrolidin-1-yl)-8-azabicyclo[3.2.1]octane-8-sulfonamide], for which the IC50 was under 1 µM.

As for `Cn1ccc(NS(=O)(=O)NC(=O)Nc2c3c(cc4c2CCC4)CCC3)n1` [Example 55, 3-((N-(1-Methyl-1H-pyrazol-3-yl))sulfamoyl)-1-(1,2,3,5,6,7-hexahydro-s-indacen-4-yl)urea, potassium salt], the half-inhibitory concentration (IC50) is under 1 µM.

Regarding `CC(C)c1cc(F)cc(-c2ccnc(C#N)c2)c1NC(=O)NS(=O)(=O)N(C)C1CCN(C)C1` (centres unmarked) [Example 101], the IC50 was under 5 µM.

In the case of `CCN1[C@@H]2CC[C@H]1C[C@H](NS(=O)(=O)NC(=O)Nc1c3c(cc4c1CCC4)CCC3)C2` [Example 74, (1R,3s,5S)-8-Ethyl-8-azabicyclo[3.2.1]octan-3-(N-((1,2,3,5,6,7-hexahydro-s-indacen-4-yl)carbamoyl)-sulfonamide)], the IC50 was under 5 µM.

Take `O=C1Cc2cc(NS(=O)(=O)NC(=O)Nc3c4c(cc5c3CCC5)CCC4)ccc2N1` [Example 24, 3-(N-(2-Oxoindolin-5-yl)sulfamoyl)-1-(1,2,3,5,6,7-hexahydro-s-indacen-4-yl)urea, potassium salt]: the IC50 is under 10 µM.

Consider `CN1CC2CN(S(=O)(=O)NC(=O)Nc3c4c(cc5c3CCC5)CCC4)CC2C1` (centres unmarked) [Example 99, N-((1,2,3,5,6,7-Hexahydro-s-indacen-4-yl)carbamoyl)-5-methylhexahydropyrrolo[3,4-c]pyrrole-2(1H)-sulfonamide], for which the IC50 was under 5 µM.

Regarding `O=C(Nc1c2c(cc3c1CCC3)CCC2)NS(=O)(=O)NCCCCO` [Example 54, 3-((N-(4-Hydroxybutyl))sulfamoyl)-1-(1,2,3,5,6,7-hexahydro-s-indacen-4-yl)urea, potassium salt], the IC50 is under 5 µM.

Take `CN(C)CCN(CCc1ccccc1)S(=O)(=O)NC(=O)Nc1c2c(cc3c1CCC3)CCC2` [Example 13, 3-(N-(2-(Dimethylamino)ethyl)-N-phenethylsulfamoyl)-1-(1,2,3,5,6,7-hexahydro-s-indacen-4-yl)urea, potassium salt]: the IC50 is under 1 µM.

With `CNCCN(C)S(=O)(=O)NC(=O)Nc1c2c(cc3c1CCC3)CCC2` [Example 32, 3-(N-Methyl-N-(2-(methylamino)ethyl))sulfamoyl)-1-(1,2,3,5,6,7-hexahydro-s-indacen-4-yl)urea, potassium salt], the 50% inhibitory concentration (IC50) is under 5 µM.

For the molecule `CN(C)C1CN(S(=O)(=O)NC(=O)Nc2c3c(cc4c2CCC4)CCC3)C1` [Example 17, 3-(Dimethylamino)-N-((1,2,3,5,6,7-hexahydro-s-indacen-4-yl)carbamoyl)azetidine-1-sulfonamide, potassium salt], the IC50 is under 1 µM.

Turning to `CC(C)c1cc(F)cc(-c2ccnc(C#N)c2)c1NC(=O)NS(=O)(=O)N(C)CC1CCCN1C` (centres unmarked) [Example 102], the IC50 is under 5 µM.

For the molecule `CN(C)CCCCNS(=O)(=O)NC(=O)Nc1c2c(cc3c1CCC3)CCC2` [Example 48, 3-(N-(4-(Dimethylamino)butyl)sulfamoyl)-1-(1,2,3,5,6,7-hexahydro-s-indacen-4-yl)urea, potassium salt], the IC50 was under 1 µM.

As for `CN(C)CC(C)(C)NS(=O)(=O)NC(=O)Nc1c2c(cc3c1CCC3)CCC2` [Example 59, 3-(N-(1-(Dimethylamino)-2-methylpropan-2-yl)sulfamoyl)-1-(1,2,3,5,6,7-hexahydro-s-indacen-4-yl)urea, potassium salt], the IC50 is under 5 µM.

With `CN1C[C@@H]2C[C@H]1CN2S(=O)(=O)NC(=O)Nc1c2c(cc3c1CCC3)CCC2` [Example 67, (1S,4S)—N-((1,2,3,5,6,7-Hexahydro-s-indacen-4-yl)carbamoyl)-5-methyl-2,5-diazabicyclo[2.2.1]heptane-2-sulfonamide, potassium salt], the IC50 was under 1 µM.

For `CC(CN(C)C)NS(=O)(=O)NC(=O)Nc1c2c(cc3c1CCC3)CCC2` (centres unmarked) [Example 16, 3-(N-(1-(Dimethylamino)propan-2-yl)sulfamoyl)-1-(1,2,3,5,6,7-hexahydro-s-indacen-4-yl)urea, potassium salt], the IC50 was under 5 µM.

Consider `CCN(CC)[C@@H]1C[C@H]2CC[C@@H](C1)N2S(=O)(=O)NC(=O)Nc1c2c(cc3c1CCC3)CCC2` [Example 78, (1R,3s,5S)-3-(Diethylamino)-N-((1,2,3,5,6,7-hexahydro-s-indacen-4-yl)carbamoyl)-8-azabicyclo[3.2.1]octane-8-sulfonamide], for which the IC50 is under 5 µM.

In the case of `CN(C)[C@@H]1C[C@H]2CC[C@@H](C1)N2S(=O)(=O)NC(=O)Nc1c2c(cc3c1CCC3)CCC2` [Example 77, (1R,3s,5S)-3-(Dimethylamino)-N-((1,2,3,5,6,7-hexahydro-s-indacen-4-yl)carbamoyl)-8-azabicyclo[3.2.1]octane-8-sulfonamide], the IC50 is under 10 µM.

For the molecule `CC(C)CN(CCN(C)C)S(=O)(=O)NC(=O)Nc1c2c(cc3c1CCC3)CCC2` [Example 12, 3-(N-(2-(Dimethylamino)ethyl)-N-isobutylsulfamoyl)-1-(1,2,3,5,6,7-hexahydro-s-indacen-4-yl)urea, potassium salt], the IC50 is under 5 µM.

As to `CCN(CC)[C@H]1C[C@H]2CC[C@@H](C1)N2S(=O)(=O)NC(=O)Nc1c2c(cc3c1CCC3)CCC2` [Example 64, (1R,3r,5S)-3-(Diethylamino)-N-((1,2,3,5,6,7-hexahydro-s-indacen-4-yl)carbamoyl)-8-azabicyclo[3.2.1]octane-8-sulfonamide], the IC50 was under 0.5 µM.

Consider `CC(CN(C)C)N(C)S(=O)(=O)NC(=O)Nc1c2c(cc3c1CCC3)CCC2` (centres unmarked) [Example 27, 3-(N-(1-(dimethylamino)propan-2-yl)-N-methyl)sulfamoyl)-1-(1,2,3,5,6,7-hexahydro-s-indacen-4-yl)urea, potassium salt], for which the IC50 is under 1 µM.

Regarding `CN(C)C(C)(C)CNS(=O)(=O)NC(=O)Nc1c2c(cc3c1CCC3)CCC2` [Example 57, 3-(N-(2-(Dimethylamino)-2-methylpropyl)sulfamoyl)-1-(1,2,3,5,6,7-hexahydro-s-indacen-4-yl)urea, potassium salt], the IC50 is under 5 µM.

As to `CN(C)CC1CCCN1S(=O)(=O)NC(=O)Nc1c2c(cc3c1CCC3)CCC2` (centres unmarked) [Example 82, 2-((Dimethylamino)methyl)-N-((1,2,3,5,6,7-hexahydro-s-indacen-4-yl)carbamoyl)pyrrolidine-1-sulfonamide, potassium salt], the IC50 was under 5 µM.

For `O=C(Nc1c2c(cc3c1CCC3)CCC2)NS(=O)(=O)N1CC(N2CCCC2)C1` [Example 23, potassium salt], the IC50 is under 5 µM.

Take `Cc1nc(C(C)C)c(NC(=O)NS(=O)(=O)N(C)C2CCN(C)C2)n1-c1ccncc1` (centres unmarked) [Example 109, 1-(5-Isopropyl-2-methyl-3-(4-pyridyl)imidazol-4-yl)-3-(methyl-(1-methylpyrrolidin-3-yl)sulfamoyl)urea]: the IC50 was under 10 µM.

In the case of `CCN1CCN(S(=O)(=O)NC(=O)Nc2c3c(cc4c2CCC4)CCC3)CC1` [Example 21, 4-Ethyl-N-((1,2,3,5,6,7-hexahydro-s-indacen-4-yl)carbamoyl) piperazine-1-sulfonamide], the IC50 is under 5 µM.

On to `CN(C)CCN(CCN(C)C)S(=O)(=O)NC(=O)Nc1c2c(cc3c1CCC3)CCC2` [Example 51, 3-(N,N-Bis(2-(dimethylamino)ethyl)sulfamoyl)-1-(1,2,3,5,6,7-hexahydro-s-indacen-4-yl)urea, potassium salt], for which the IC50 was under 10 µM.

Regarding `CC(=O)N(C)CCN(C)S(=O)(=O)NC(=O)Nc1c2c(cc3c1CCC3)CCC2` [Example 41, N-(2-((N-((1,2,3,5,6,7-Hexahydro-s-indacen-4-yl)carbamoyl)sulfamoyl)(methyl)amino)ethyl)-N-methylacetamide, potassium salt], the IC50 was under 5 µM.

Turning to `CN1CC(CNS(=O)(=O)NC(=O)Nc2c3c(cc4c2CCC4)CCC3)C1` [Example 69, 3-(N-((1-Methylazetidin-3-yl)methyl)sulfamoyl)-1-(1,2,3,5,6,7-hexahydro-s-indacen-4-yl)urea, potassium salt], the IC50 is under 1 µM.
